Laboratory results from patent US8299070B2, “Indole compounds and pharmaceutical use thereof” (Japan Tobacco Inc., priority 2009, dated 2012).
pIC50: −log10 of the molar value. Counter-ions that a name gives are not always drawn.

Biological target: T1, hITK enzyme (FLAG-tagged full-length hITK) (Homo sapiens, UniProt Q08881)
T1 construct: strongly expressing FLAG-tagged full-length hITK in Sf9 cells; FLAG; made in house; host or cells: Sf9 insect cells (ITK); Escherichia coli (GST-SLP76 substrate)
T1 sequence (Q08881 1-620): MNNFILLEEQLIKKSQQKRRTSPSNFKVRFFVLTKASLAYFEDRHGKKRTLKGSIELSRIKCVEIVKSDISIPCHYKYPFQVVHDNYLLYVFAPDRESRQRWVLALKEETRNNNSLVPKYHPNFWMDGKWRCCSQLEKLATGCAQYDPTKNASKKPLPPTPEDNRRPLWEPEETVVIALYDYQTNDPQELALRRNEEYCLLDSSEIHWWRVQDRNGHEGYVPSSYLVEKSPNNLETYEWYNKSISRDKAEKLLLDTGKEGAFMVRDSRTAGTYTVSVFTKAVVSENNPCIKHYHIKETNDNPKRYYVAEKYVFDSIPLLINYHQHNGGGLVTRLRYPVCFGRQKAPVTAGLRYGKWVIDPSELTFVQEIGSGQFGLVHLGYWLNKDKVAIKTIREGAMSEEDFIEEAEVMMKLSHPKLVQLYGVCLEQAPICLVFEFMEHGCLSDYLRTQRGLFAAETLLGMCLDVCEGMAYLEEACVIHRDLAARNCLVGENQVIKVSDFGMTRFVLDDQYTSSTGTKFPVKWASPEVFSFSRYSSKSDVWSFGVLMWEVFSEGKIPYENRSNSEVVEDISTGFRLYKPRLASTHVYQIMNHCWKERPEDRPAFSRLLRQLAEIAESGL
Test: ITK inhibitory activity (HTRF kinase assay, biotinylated GST-SLP76 substrate)
Type: biochemical
Details: for pIC50: IC50 calculated from the 2 test compound concentrations sandwiching 50% ITK inhibitory rate
Summary of the method: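 Sf9-expressed hITK (50 ng/mL enzyme solution) reacted 10 min at RT in MOPS pH 7.0, 10 mmol/L MgCl2, 1 mmol/L DTT with E. coli SLP76 aa95–175 substrate; substrate solution held 100 µmol/L ATP (6 µmol/L for selected compounds). HTRF 665/620 ratio, blank-corrected; IC50 interpolated between two concentrations bracketing 50% inhibition.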

Row | Structure (SMILES) | pIC50 | inhibition at 0.03 µM (at 30 nM test compound, read-out: ITK inhibitory rate (%)) [%]
1 | COCC(=O)N(CCN(C)C)c1ccc2cc(-c3n[nH]c4c3CCC(C)(C)C4)[nH]c2c1 [Example 222] | > 8.52 | 
2 | COCCN(C(=O)[C@H](C)N1CCOCC1)c1ccc2cc(-c3n[nH]c4c3CCC(C)(C)C4)[nH]c2c1 [Example 276] | 8.40 | 
3 | CC[C@H](C(=O)N(C)c1ccc2cc(-c3n[nH]c4c3CCC(C)(C)C4)[nH]c2c1)N1CCOCC1 [Example 191] | 8.15 | 
4 | CN(C(=O)C(C)(C)COCc1ccccc1)c1ccc2cc(-c3n[nH]c4c3CCC(C)(C)C4)[nH]c2c1 [Example 75] | 7.47 | 
5 | CN(C)CCCN(C(=O)C1CCOC1)c1ccc2cc(-c3n[nH]c4c3CCC(C)(C)C4)[nH]c2c1 (stereo not drawn) [Example 225] | 8.70 | 
6 | CC1(C)CCc2c(-c3cc4cc(C(=O)NCc5ccccc5)ccc4[nH]3)n[nH]c2C1 [Example 315] | 7.22 | 
7 | CCN(C(=O)CC1CCC(OC)CC1)c1ccc2cc(-c3n[nH]c4c3CCC(C)(C)C4)[nH]c2c1 (stereo not drawn) [Example 273] | 7.96 | 
8 | CN(C(=O)C1CCCC1)c1ccc2cc(-c3n[nH]c4c3CCC(C)(CO)C4)[nH]c2c1 (stereo not drawn) [Example 349] | 8.70 | 
9 | CC(=O)Nc1ccc2cc(-c3n[nH]c4c3CCC(C)(C)C4)[nH]c2c1 [Example 374] | 6.89 | 
10 | CC1(C)CCc2c(-c3cc4cc(C(=O)Nc5ccccc5)ccc4[nH]3)n[nH]c2C1 [Example 293] | 6.58 | 
11 | CC(NC(=O)c1ccc2cc(-c3n[nH]c4c3CCC(C)(C)C4)[nH]c2c1)C(C)(C)C (stereo not drawn) [Example 13] | 7.00 | 
12 | CC1(C)CCc2c(-c3cc4ccc(N5CCC(C)(O)C5=O)cc4[nH]3)n[nH]c2C1 (stereo not drawn) [Example 244] | 7.64 | 
13 | CC(C(=O)N(C)c1ccc2cc(-c3n[nH]c4c3CCC(C)(C)C4)[nH]c2c1)N1CCOCC1 (stereo not drawn) [Example 104] | 8.40 | 
14 | CN(CC(=O)N(C)c1ccc2cc(-c3n[nH]c4c3CCC(C)(C)C4)[nH]c2c1)C(=O)OCc1ccccc1 [Example 178] | 8.40 | 
15 | C[C@@H]1CCc2c(-c3cc4ccc(N(C)C(=O)c5ccccc5)cc4[nH]3)n[nH]c2C1 [Example 358] | 7.42 | 
16 | Cn1cncc1CNC(=O)c1ccc2[nH]c(-c3n[nH]c4c3CCC(C)(C)C4)cc2c1 [Example 329] | 7.89 | 
17 | CN(C(=O)COc1cccnc1)c1ccc2cc(-c3n[nH]c4c3CCC(C)(C)C4)[nH]c2c1 [Example 86] | > 8.52 | 

Row | Structure (SMILES) | pIC50 | inhibition at 0.03 µM (at 30 nM test compound, read-out: ITK inhibitory rate (%)) [%]
18 | CCN(CC)C(=O)c1ccc2[nH]c(-c3n[nH]c4c3CCC(C)(C)C4)cc2c1 [Example 330] | 7.10 | 
19 | CC(C(=O)N(C)c1ccc2cc(-c3n[nH]c4c3CCC(C)(C)C4)[nH]c2c1)N(C)C(=O)OC(C)(C)C (stereo not drawn) [Example 195] | 7.70 | 
20 | CN(C)CCN(C(=O)C1CCOC1)c1ccc2cc(-c3n[nH]c4c3CCC(C)(C)C4)[nH]c2c1 (stereo not drawn) [Example 217] | > 8.52 | 
21 | CCC(=O)N(C)c1ccc2cc(-c3n[nH]c4c3CCC(C)C4)[nH]c2c1 (stereo not drawn) [Example 355] | 8.05 | 
22 | COCC(=O)N(C)c1ccc2cc(-c3n[nH]c4c3CC(O)CC4)[nH]c2c1 (stereo not drawn) [Example 366] | 7.09 | 
23 | CC1(C)CCc2c(-c3cc4cc(C(=O)NCc5ccoc5)ccc4[nH]3)n[nH]c2C1 [Example 318] | 7.35 | 
24 | CC(C)C(=O)N(C)[C@@H](C)C(=O)N(C)c1ccc2cc(-c3n[nH]c4c3CCC(C)(C)C4)[nH]c2c1 [Example 204] |  | 49.2
25 | COCC1(C)CCc2c(-c3cc4ccc(N(C)C(=O)[C@H]5CC[C@@H](OC)CC5)cc4[nH]3)n[nH]c2C1 (stereo partly drawn) [Example 348] | 8.10 | 
26 | COCCN(C)C(=O)c1ccc2[nH]c(-c3n[nH]c4c3CCC(C)(C)C4)cc2c1 [Example 313] | 7.33 | 
27 | COC(=O)CN(C)C(=O)c1ccc2[nH]c(-c3n[nH]c4c3CCC(C)(C)C4)cc2c1 [Example 311] | 7.49 | 
28 | CCN(C(=O)CC(C)(C)O)c1ccc2cc(-c3n[nH]c4c3CCC(C)(C)C4)[nH]c2c1 [Example 290] | 8.10 | 
29 | CCC(=O)N(C)c1ccc2cc(-c3n[nH]c4c3CC[C@@H](C)C4)[nH]c2c1 [Example 354] | 7.80 | 
30 | CN(C(=O)c1ccc2cc(-c3n[nH]c4c3CCC(C)(C)C4)[nH]c2c1)c1ccccc1 [Example 10] | 7.35 | 
31 | CN(C(=O)COc1ccccc1)c1ccc2cc(-c3n[nH]c4c3CCC(C)(C)C4)[nH]c2c1 [Example 45] | > 8.52 | 
32 | C[C@@H](C(=O)Nc1ccc2cc(-c3n[nH]c4c3CCC(C)(C)C4)[nH]c2c1)N1CCOCC1 [Example 375] | 6.96 | 
33 | CC(C)CNC(=O)c1ccc2cc(-c3n[nH]c4c3CCC(C)(C)C4)[nH]c2c1 [Example 12] | 7.48 | 

Results, then the compound that gave them:

Row | pIC50 | inhibition at 0.03 µM (at 30 nM test compound, read-out: ITK inhibitory rate (%)) [%] | Structure (SMILES)
34 | 8.40 |  | COCC1(C)CCc2c(-c3cc4ccc(N(C)C(=O)CN5CCCCC5=O)cc4[nH]3)n[nH]c2C1 (stereo not drawn) [Example 347]
35 | 6.61 |  | CC(C)CC(=O)N(C)c1ccc2[nH]c(-c3n[nH]c4c3CCC(C)(C)C4)cc2c1 [Example 342]
36 | 9.00 |  | CC1CC(=O)N(CC(=O)N(C)c2ccc3cc(-c4n[nH]c5c4CCC(C)(C)C5)[nH]c3c2)C1 (stereo not drawn) [Example 188]
37 | 8.52 |  | CCC(O)C(=O)N(C)c1ccc2cc(-c3n[nH]c4c3CCC(C)(C)C4)[nH]c2c1 (stereo not drawn) [Example 49]
38 | 9.00 |  | CCN(C(=O)CN1CCOCC1=O)c1ccc2cc(-c3n[nH]c4c3CCC(C)(C)C4)[nH]c2c1 [Example 288]
39 | 8.70 |  | CC(NCCO)C(=O)N(C)c1ccc2cc(-c3n[nH]c4c3CCC(C)(C)C4)[nH]c2c1 (stereo not drawn) [Example 376]
40 | > 9.00 |  | COCC(=O)N(C)CC(=O)N(C)c1ccc2cc(-c3n[nH]c4c3CCC(C)(C)C4)[nH]c2c1 [Example 180]
41 | 7.72 |  | CN(C(=O)[C@@H]1CCCN1C)c1ccc2cc(-c3n[nH]c4c3CCC(C)(C)C4)[nH]c2c1 [Example 148]
42 | 8.30 |  | CC1CN(C(C)C(=O)N(C)c2ccc3cc(-c4n[nH]c5c4CCC(C)(C)C5)[nH]c3c2)CC(C)O1 (stereo not drawn) [Example 120]
43 | 8.70 |  | CCN(C(=O)CN1C[C@@H](C)OCC1=O)c1ccc2cc(-c3n[nH]c4c3CCC(C)(C)C4)[nH]c2c1 [Example 282]
44 | 8.70 |  | COCCN(C(=O)CN1CCOC(C)C1=O)c1ccc2cc(-c3n[nH]c4c3CCC(C)(C)C4)[nH]c2c1 (stereo not drawn) [Example 265]
45 | 8.10 |  | COC1CCN(CC(=O)N(C)c2ccc3cc(-c4n[nH]c5c4CCC(C)(C)C5)[nH]c3c2)CC1 [Example 81]
46 | 8.70 |  | CN(C(=O)CN1CC(C)(C)CCC1=O)c1ccc2cc(-c3n[nH]c4c3CCC(C)(C)C4)[nH]c2c1 [Example 175]
47 | 9.00 |  | COCCN(C(=O)CN1CC(C)(C)OCC1=O)c1ccc2cc(-c3n[nH]c4c3CCC(C)(C)C4)[nH]c2c1 [Example 278]
48 | > 8.52 |  | CCOCC(=O)N(C)c1ccc2cc(-c3n[nH]c4c3CCC(C)(C)C4)[nH]c2c1 [Example 44]
49 | > 9.00 |  | CCN(C(=O)CN1CCOC(C)C1=O)c1ccc2cc(-c3n[nH]c4c3CCC(C)(C)C4)[nH]c2c1 (stereo not drawn) [Example 260]
50 | 8.70 |  | CN(C(=O)[C@H]1CCCO1)c1ccc2cc(-c3n[nH]c4c3CCC(C)(C)C4)[nH]c2c1 [Example 140]
51 | 8.70 |  | COC[C@@H]1CCC(=O)N1CC(=O)N(C)c1ccc2cc(-c3n[nH]c4c3CCC(C)(C)C4)[nH]c2c1 [Example 197]
52 | 8.52 |  | C[C@@H](C(=O)N(C)c1ccc2cc(-c3n[nH]c4c3CCC(C)(C)C4)[nH]c2c1)N1CCOCC1 [Example 5, (S)—N-[2-(6,6-dimethyl-4,5,6,7-tetrahydro-1H-indazol-3-yl)-1H-indol-6-yl]-N-methyl-2-(morpholin-4-yl)propionamide hydrochloride]
53 | 7.66 |  | CN(C(=O)C(C)(C)N1CCOCC1)c1ccc2cc(-c3n[nH]c4c3CCC(C)(C)C4)[nH]c2c1 [Example 161]
54 | 8.52 |  | CN(C(=O)C(O)C1CCCOC1)c1ccc2cc(-c3n[nH]c4c3CCC(C)(C)C4)[nH]c2c1 (stereo not drawn) [Example 96]
55 | > 9.00 |  | CN(C(=O)Cn1ccccc1=O)c1ccc2cc(-c3n[nH]c4c3CCC(C)(C)C4)[nH]c2c1 [Example 156]
56 | 6.93 |  | CN(C(=O)OC1CCCCC1)c1ccc2cc(-c3n[nH]c4c3CCC(C)(C)C4)[nH]c2c1 [Example 102]
57 | 8.40 |  | COC(C)C(=O)N(C)c1ccc2cc(-c3n[nH]c4c3CCC(C)(C)C4)[nH]c2c1 (stereo not drawn) [Example 41]
58 | 8.52 |  | CCC(=O)N(C)c1ccc2cc(-c3n[nH]c4c3CCC(C)(C)C4)[nH]c2c1 [Example 70]
59 | 8.70 |  | CN(C(=O)[C@H]1CCC(=O)N1C)c1ccc2cc(-c3n[nH]c4c3CCC(C)(C)C4)[nH]c2c1 [Example 150]
60 | > 8.52 |  | COCC(=O)N(C)c1ccc2cc(-c3n[nH]c4c3CCC(C)(C)C4)[nH]c2c1 [Example 36]
61 | 8.52 |  | CCN(C(=O)CN1C(=O)COC[C@@H]1C)c1ccc2cc(-c3n[nH]c4c3CCC(C)(C)C4)[nH]c2c1 [Example 271]
62 | 7.74 |  | CN(C(N)=O)c1ccc2cc(-c3n[nH]c4c3CCC(C)(C)C4)[nH]c2c1 [Example 54]
63 | 8.40 |  | CO[C@H]1CC[C@@H](C(=O)N(C)c2ccc3cc(-c4n[nH]c5c4CCC(C)(C)C5)[nH]c3c2)CC1 [Example 85]
